System: HCV genotype-1a variant with glutamine 30 changed to glutamate in the NS5A protein
Format: cell-based
Conditions: test compound titrated with BMS-790052 fixed at 200 nM; genotype 1a Q30E replicon
Procedure, shortened: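 Synergy was assessed by combining several fixed amounts of an NS5A-targeting compound with a titration of the second compound of interest.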

CC(C)C(C)(C)C(=O)N[C@H](c1ncc(-c2ccc(-c3ccc(-c4cnc([C@@H](NC(=O)C(C)(C)C(C)C)C(C)(C)C)[nH]4)cc3)cc2)[nH]1)C(C)(C)C [Compound B88]
Fold-Synergistic 1a (Q30E): >100 fold

CC(C)(C(=O)N[C@H](c1ncc(-c2ccc(-c3ccc(-c4cnc([C@@H](NC(=O)C(C)(C)C5CCOCC5)C(C)(C)C)[nH]4)cc3)cc2)[nH]1)C(C)(C)C)C1CCOCC1 [Compound B98]
Fold-Synergistic 1a (Q30E): >100 fold

CC1([C@H](NC(=O)C(C)(C)C(C)(C)O)c2ncc(-c3ccc(-c4ccc(-c5cnc([C@@H](NC(=O)C(C)(C)C(C)(C)O)C6(C)CC6)[nH]5)cc4)cc3)[nH]2)CC1 [Compound B148]
Fold-Synergistic 1a (Q30E): >100 fold

CC1([C@H](NC(=O)C2(C(C)(C)O)CC2)c2ncc(-c3ccc(-c4ccc(-c5cnc([C@@H](NC(=O)C6(C(C)(C)O)CC6)C6(C)CC6)[nH]5)cc4)cc3)[nH]2)CC1 [Compound B149]
Fold-Synergistic 1a (Q30E): >100 fold

CC(O)(CC1CC1)C(=O)N[C@H](c1nc(-c2ccc(-c3ccc(-c4cnc([C@@H](NC(=O)C(C)(O)CC5CC5)C(C)(C)C)[nH]4)cc3)cc2)c[nH]1)C(C)(C)C (stereo partly drawn) [Compound B-162]
Fold-Synergistic 1a (Q30E): >100 fold

C=CC(C)(C)C(=O)N[C@H](c1nc(-c2ccc(-c3ccc(-c4cnc([C@@H](NC(=O)C(C)(C)C=C)C(C)(C)C)[nH]4)cc3)cc2)c[nH]1)C(C)(C)C.O=C(O)C(F)(F)F [Compound B-166]
Fold-Synergistic 1a (Q30E): >100 fold

CC(C)(C(=O)N[C@H](c1nc(-c2ccc(-c3ccc(-c4cnc([C@@H](NC(=O)C(C)(C)C5CC5)C(C)(C)C)[nH]4)cc3)cc2)c[nH]1)C(C)(C)C)C1CC1 [Compound B-167]
Fold-Synergistic 1a (Q30E): >100 fold

CC(C)(C(=O)N[C@H](c1nc(-c2ccc(-c3ccc(-c4cnc([C@@H](NC(=O)C(C)(C)C5CCOC5)C(C)(C)C)[nH]4)cc3)cc2)c[nH]1)C(C)(C)C)C1CCOC1 (stereo partly drawn) [Compound B-168]
Fold-Synergistic 1a (Q30E): >100 fold

CC(C)(C)[C@H](NC(=O)c1cccc(B(O)O)c1)c1nc(-c2ccc(-c3ccc(-c4cnc([C@@H](NC(=O)c5cccc(B(O)O)c5)C(C)(C)C)[nH]4)cc3)cc2)c[nH]1 [Compound B-178]
Fold-Synergistic 1a (Q30E): >10 fold

CC(C)(C)[C@H](NC(=O)C(C)(C)S(C)(=O)=O)c1nc(-c2ccc(-c3ccc(-c4cnc([C@@H](NC(=O)C(C)(C)S(C)(=O)=O)C(C)(C)C)[nH]4)cc3)cc2)c[nH]1 [Compound B-180]
Fold-Synergistic 1a (Q30E): >100 fold

CC(C)(C)[C@H](NC(=O)CS(C)(=O)=O)c1nc(-c2ccc(-c3ccc(-c4cnc([C@@H](NC(=O)CS(C)(=O)=O)C(C)(C)C)[nH]4)cc3)cc2)c[nH]1 [Compound B-181]
Fold-Synergistic 1a (Q30E): >10 fold

CC(C)S(=O)(=O)CC(=O)N[C@H](c1nc(-c2ccc(-c3ccc(-c4cnc([C@@H](NC(=O)CS(=O)(=O)C(C)C)C(C)(C)C)[nH]4)cc3)cc2)c[nH]1)C(C)(C)C [Compound B-182]
Fold-Synergistic 1a (Q30E): >100 fold

CC(C)(C)[C@H](NC(=O)C1CC12CCC2)c1nc(-c2ccc(-c3ccc(-c4cnc([C@@H](NC(=O)C5CC56CCC6)C(C)(C)C)[nH]4)cc3)cc2)c[nH]1 (stereo partly drawn) [Compound B-183]
Fold-Synergistic 1a (Q30E): >100 fold

CC(C)(C)[C@H](NC(=O)[C@@]1(C)CCC(F)(F)CO1)c1ncc(-c2ccc(C34CCC(c5cnc([C@@H](NC(=O)[C@@]6(C)CCC(F)(F)CO6)C(C)(C)C)[nH]5)(CC3)CC4)cc2)[nH]1 [Compound B-186, (R)—N—((S)-1-(5-(4-(4-(2-((S)-1-((R)-5,5-difluoro-2-methyltetrahydro-2H-pyran-2-carboxamido)-2,2-dimethylpropyl)-1H-imidazol-5-yl)bicyclo[2.2.2]octan-1-yl)phenyl)-1H-imidazol-2-yl)-2,2-dimethylpropyl)-5,5-difluoro-2-methyltetrahydro-2H-pyran-2-carboxamide]
Fold-Synergistic 1a (Q30E): >100 fold

CC(C)(C)[C@H](NC(=O)[C@@]1(C)CCC(F)(F)CO1)c1ncc(-c2ccc([C@H]3C[C@@H]3c3ccc(-c4cnc([C@@H](NC(=O)[C@@]5(C)CCC(F)(F)CO5)C(C)(C)C)[nH]4)cc3)cc2)[nH]1 [Compound B-187]
Fold-Synergistic 1a (Q30E): >100 fold

CC(C)(C)[C@H](NC(=O)C1CCC(F)(F)CC1)c1ncc(-c2ccc([C@@H]3C[C@H]3c3ccc(-c4cnc([C@@H](NC(=O)C5CCC(F)(F)CC5)C(C)(C)C)[nH]4)cc3)cc2)[nH]1 [Compound B-190]
Fold-Synergistic 1a (Q30E): >100 fold

COC(=O)N[C@H](C(=O)N1CCC[C@H]1c1ncc(-c2ccc(-c3ccc(-c4cnc([C@@H](NC(=O)[C@@H]5CCCN5C(=O)OC(C)(C)C)C(C)(C)C)[nH]4)cc3)cc2)[nH]1)C(C)C [Compound B-191]
Fold-Synergistic 1a (Q30E): >10 fold

COC(=O)NC(C(=O)N1CCCC1c1ncc(-c2ccc(-c3ccc(-c4cnc(C(NC(=O)C5CCC(F)(F)CC5)C(C)(C)C)[nH]4)cc3)cc2)[nH]1)C(C)C (stereo not drawn) [Compound B-192]
Fold-Synergistic 1a (Q30E): >10 fold

COC(=O)NC(C(=O)N1CCCC1c1ncc(-c2ccc(-c3ccc(-c4cnc(C(NC(=O)C5(C)CCC(F)(F)CO5)C(C)(C)C)[nH]4)cc3)cc2)[nH]1)C(C)C (stereo not drawn) [Compound B-193]
Fold-Synergistic 1a (Q30E): >10 fold

COC(=O)NC(C(=O)NC(c1ncc(-c2ccc(-c3ccc(-c4cnc(C5CCCN5C(=O)C(NC(=O)OC)C(C)C)[nH]4)cc3)cc2)[nH]1)C(C)(C)C)C(C)C (stereo not drawn) [Compound B-194]
Fold-Synergistic 1a (Q30E): <10 fold

COC(=O)NC(C(=O)N1CCCC1c1ncc(-c2ccc(-c3ccc(-c4cnc(C(NC(=O)C(C)(C)C)C(C)(C)C)[nH]4)cc3)cc2)[nH]1)C(C)C (stereo not drawn) [Compound B-195]
Fold-Synergistic 1a (Q30E): >10 fold

COC(=O)NC(C(=O)NC(c1ncc(-c2ccc(-c3ccc(-c4cnc(C5CCCN5C(=O)C(NC(=O)OC)C(C)C)[nH]4)cc3)cc2)[nH]1)C(C)(C)C)C(C)C (stereo not drawn) [Compound B-196]
Fold-Synergistic 1a (Q30E): >10 fold

CC(C)[C@H](NC(=O)C1CCC(F)(F)CC1)c1ncc(-c2ccc(-c3ccc(-c4cnc([C@@H](NC(=O)C5CCC(F)(F)CC5)C(C)C)n4C)cc3)cc2)n1C [Compound B-200]
Fold-Synergistic 1a (Q30E): <10 fold

CC(C)C(NC(=O)C1(C)CCC(F)(F)CO1)c1ncc(-c2ccc(-c3ccc(-c4cnc(C(NC(=O)C5(C)CCC(F)(F)CO5)C(C)C)n4C)cc3)cc2)n1C (stereo not drawn) [Compound B-201]
Fold-Synergistic 1a (Q30E): >10 fold

CC(C)[C@H](NC(=O)C(C)(C)C)c1ncc(-c2ccc(-c3ccc(-c4cnc([C@@H](NC(=O)C(C)(C)C)C(C)C)n4C)cc3)cc2)n1C [Compound B-205]
Fold-Synergistic 1a (Q30E): <10 fold

CN(C(=O)C1CCC(F)(F)CC1)[C@H](c1ncc(-c2ccc(-c3ccc(-c4cnc([C@@H](N(C)C(=O)C5CCC(F)(F)CC5)C(C)(C)C)[nH]4)cc3)cc2)[nH]1)C(C)(C)C [Compound B-206]
Fold-Synergistic 1a (Q30E): <10 fold

CN(C(=O)C(C)(C)C)[C@H](c1ncc(-c2ccc(-c3ccc(-c4cnc([C@@H](N(C)C(=O)C(C)(C)C)C(C)(C)C)[nH]4)cc3)cc2)[nH]1)C(C)(C)C [Compound B-207]
Fold-Synergistic 1a (Q30E): <10 fold

CC(C)(C)CN[C@H](c1nc(-c2ccc(-c3ccc(-c4c[nH]c([C@@H](NCC(C)(C)C)C(C)(C)C)n4)cc3)cc2)c[nH]1)C(C)(C)C [Compound L-1]
Fold-Synergistic 1a (Q30E): >100 fold

CC(C)(C)[C@H](NCC1CCCCC1)c1nc(-c2ccc(-c3ccc(-c4c[nH]c([C@@H](NCC5CCCCC5)C(C)(C)C)n4)cc3)cc2)c[nH]1.O=C(O)C(F)(F)F [Compound L-2]
Fold-Synergistic 1a (Q30E): >100 fold

CC(C)(C)OC(=O)NC(C)(C)C(=O)N[C@H](c1nc(-c2ccc(-c3ccc(-c4c[nH]c([C@@H](NC(=O)C(C)(C)NC(=O)OC(C)(C)C)C(C)(C)C)n4)cc3)cc2)c[nH]1)C(C)(C)C [Compound L-3]
Fold-Synergistic 1a (Q30E): >100 fold

CC(C)(C)OC(=O)NC1(C(=O)N[C@H](c2nc(-c3ccc(-c4ccc(-c5c[nH]c([C@@H](NC(=O)C6(NC(=O)OC(C)(C)C)CCC6)C(C)(C)C)n5)cc4)cc3)c[nH]2)C(C)(C)C)CCC1.O=C(O)C(F)(F)F.O=C(O)C(F)(F)F [Compound L-5]
Fold-Synergistic 1a (Q30E): >100 fold

CC(C)(C)OC(=O)NC1(C(=O)N[C@H](c2nc(-c3ccc(-c4ccc(-c5c[nH]c([C@@H](NC(=O)C6(NC(=O)OC(C)(C)C)CCCC6)C(C)(C)C)n5)cc4)cc3)c[nH]2)C(C)(C)C)CCCC1.O=C(O)C(F)(F)F.O=C(O)C(F)(F)F [Compound L-6]
Fold-Synergistic 1a (Q30E): >100 fold

CC(C)(C)OC(=O)NC1(C(=O)N[C@H](c2nc(-c3ccc(-c4ccc(-c5c[nH]c([C@@H](NC(=O)C6(NC(=O)OC(C)(C)C)CCCCC6)C(C)(C)C)n5)cc4)cc3)c[nH]2)C(C)(C)C)CCCCC1.O=C(O)C(F)(F)F.O=C(O)C(F)(F)F [Compound L-7]
Fold-Synergistic 1a (Q30E): >100 fold

CN(C(=O)OC(C)(C)C)C(C)(C)C(=O)N[C@H](c1nc(-c2ccc(-c3ccc(-c4c[nH]c([C@@H](NC(=O)C(C)(C)N(C)C(=O)OC(C)(C)C)C(C)(C)C)n4)cc3)cc2)c[nH]1)C(C)(C)C.O=C(O)C(F)(F)F.O=C(O)C(F)(F)F [Compound L-8]
Fold-Synergistic 1a (Q30E): >100 fold

CC(C)(C)C(NC(=O)C1COC(=O)N1)c1nc(-c2ccc(-c3ccc(-c4c[nH]c(C(NC(=O)C5COC(=O)N5)C(C)(C)C)n4)cc3)cc2)c[nH]1.O=C(O)C(F)(F)F.O=C(O)C(F)(F)F [Compound L-9]
Fold-Synergistic 1a (Q30E): >10 fold

CC(C)(C)[C@H](NC(=O)[C@@H]1CCC(=O)N1)c1nc(-c2ccc(-c3ccc(-c4c[nH]c([C@@H](NC(=O)[C@@H]5CCC(=O)N5)C(C)(C)C)n4)cc3)cc2)c[nH]1.O=C(O)C(F)(F)F.O=C(O)C(F)(F)F [Compound L-10]
Fold-Synergistic 1a (Q30E): >10 fold
